Experimental data: PubChem BioAssay (NCI)
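Five compound concentrations were applied to cells in 96-well plates for 48 hours; endpoints were derived by simple linear interpolation of the resulting dose-response curve. GI50 = concentration required for 50% inhibition of growth. At the TGI there is no net growth.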

Key:
Test in all cases: growth of human tumour cells (NCI), 48 h
[1] = tested on: 786-0 renal
[2] = tested on: A498 renal
[3] = tested on: A549 NSCLC
[4] = tested on: ACHN renal
[5] = tested on: BT-549 breast
[6] = tested on: CCRF-CEM leukemia
[7] = tested on: COLO 205 colon
[8] = tested on: DU-145 prostate
[9] = tested on: EKVX NSCLC
[10] = tested on: HCC-2998 colon
[11] = tested on: HCT-116 colon
[12] = tested on: HCT-15 colon
[13] = tested on: HL-60(TB) leukemia
[14] = tested on: HOP-62 NSCLC
[15] = tested on: HOP-92 NSCLC
[16] = tested on: HS 578T breast
[17] = tested on: HT29 colon
[18] = tested on: IGROV1 ovarian
[19] = tested on: K-562 leukemia
[20] = tested on: KM12 colon
[21] = tested on: LOX IMVI melanoma
[22] = tested on: M14 melanoma
[23] = tested on: MALME-3M melanoma
[24] = tested on: MCF7 breast
[25] = tested on: MDA-MB-231 breast
[26] = tested on: MDA-MB-435
[27] = tested on: MOLT-4 leukemia
[28] = tested on: NCI-H226 lung
[29] = tested on: NCI-H460 lung
[30] = tested on: NCI-H522 lung
[31] = tested on: NCI/ADR-RES ovarian
[32] = tested on: OVCAR-3 ovarian
[33] = tested on: OVCAR-4 ovarian
[34] = tested on: OVCAR-5 ovarian
[35] = tested on: OVCAR-8 ovarian
[36] = tested on: PC-3 prostate
[37] = tested on: RPMI-8226 leukemia
[38] = tested on: RXF 393 renal
[39] = tested on: SF-268 CNS
[40] = tested on: SF-295 CNS
[41] = tested on: SF-539 CNS
[42] = tested on: SK-MEL-2 melanoma
[43] = tested on: SK-MEL-28 melanoma
[44] = tested on: SK-MEL-5 melanoma
[45] = tested on: SK-OV-3 ovarian
[46] = tested on: SN12C renal
[47] = tested on: SNB-19 CNS
[48] = tested on: SNB-75 CNS
[49] = tested on: SW-620 colon
[50] = tested on: T-47D breast
[51] = tested on: TK-10 renal
[52] = tested on: U251 CNS
[53] = tested on: UACC-257 melanoma
[54] = tested on: UACC-62 melanoma
[55] = tested on: UO-31 renal
[56] = tested on: CAKI-1 renal
[57] = tested on: NCI-H23 lung

Work on `CN1CCN(c2ccc(N3Cc4ccccc4OC4=C3C(=O)c3c(O)ccc(O)c3C4=O)cn2)CC1` yielded a GI50 [1] of 191 nM, a TGI [1] of 404 nM and a GI50 [2] of 2150 nM. The TGI [2] was 4940 nM, the GI50 [3] was 2180 nM and the TGI [3] was 6730 nM. For the same compound, the GI50 [4] was 57.4 nM, the TGI [4] was 203 nM and the GI50 [5] was 251 nM. The TGI [5] was 723 nM, the GI50 [6] was 97.2 nM and the TGI [6] was greater than 33500 nM. It also gave a GI50 [7] of 126 nM, a TGI [7] of 302 nM and a GI50 [8] of 360 nM. For the same compound, the TGI [8] was 1290 nM, the GI50 [9] was 244 nM and the TGI [9] was 1240 nM. It also gave a GI50 [10] of 1280 nM, a TGI [10] of 2780 nM and a GI50 [11] of 113 nM. For the same compound, the TGI [11] was 326 nM, the GI50 [12] was 186 nM and the TGI [12] was 638 nM. For the same compound, the GI50 [13] was 135 nM, the TGI [13] was 445 nM and the GI50 [14] was 1550 nM. The TGI [14] was 4880 nM, the GI50 [15] was 230 nM and the TGI [15] was 499 nM. For the same compound, the GI50 [16] was 876 nM, the TGI [16] was greater than 100000 nM and the GI50 [17] was 209 nM. The TGI [17] was 562 nM, the GI50 [18] was 272 nM and the TGI [18] was 1010 nM. It also gave a GI50 [19] of 71.3 nM, a TGI [19] of 2530 nM and a GI50 [20] of 1180 nM. For the same compound, the TGI [20] was 3600 nM, the GI50 [21] was 215 nM and the TGI [21] was 618 nM. The GI50 [22] was 244 nM, the TGI [22] was 651 nM and the GI50 [23] was 89.3 nM. The TGI [23] was 298 nM, the GI50 [24] was 149 nM and the TGI [24] was 585 nM. The GI50 [25] was 275 nM, the TGI [25] was 706 nM and the GI50 [26] was 234 nM. It also gave a TGI [26] of 575 nM, a GI50 [27] of 89.5 nM and a TGI [27] of 5380 nM. For the same compound, the GI50 [28] was 2260 nM, the TGI [28] was 12000 nM and the GI50 [29] was 1170 nM. For the same compound, the TGI [29] was 3830 nM, the GI50 [30] was 32.2 nM and the TGI [30] was 134 nM. The GI50 [31] was 403 nM, the TGI [31] was greater than 100000 nM and the GI50 [32] was 167 nM. The TGI [32] was 469 nM, the GI50 [33] was 264 nM and the TGI [33] was 855 nM. It also gave a GI50 [34] of 692 nM, a TGI [34] of 1950 nM and a GI50 [35] of 370 nM. It also gave a TGI [35] of 4570 nM, a GI50 [36] of 385 nM and a TGI [36] of 1630 nM. For the same compound, the GI50 [37] was 260 nM, the TGI [37] was 901 nM and the GI50 [38] was 164 nM. It also gave a TGI [38] of 346 nM, a GI50 [39] of 580 nM and a TGI [39] of 2430 nM. For the same compound, the GI50 [40] was 1870 nM, the TGI [40] was 5000 nM and the GI50 [41] was 233 nM. For the same compound, the TGI [41] was 595 nM, the GI50 [42] was 738 nM and the TGI [42] was 2230 nM. For the same compound, the GI50 [43] was 282 nM, the TGI [43] was 762 nM and the GI50 [44] was 1270 nM. It also gave a TGI [44] of 2750 nM, a GI50 [45] of 2920 nM and a TGI [45] of 11400 nM. It also gave a GI50 [46] of 316 nM, a TGI [46] of 1100 nM and a GI50 [47] of 742 nM. It also gave a TGI [47] of 2570 nM, a GI50 [48] of 907 nM and a TGI [48] of 5400 nM. For the same compound, the GI50 [49] was 196 nM, the TGI [49] was 635 nM and the GI50 [50] was 184 nM. For the same compound, the TGI [50] was 706 nM, the GI50 [51] was 260 nM and the TGI [51] was 825 nM. For the same compound, the GI50 [52] was 397 nM, the TGI [52] was 1590 nM and the GI50 [53] was 426 nM. The TGI [53] was 1170 nM, the GI50 [54] was 330 nM and the TGI [54] was 1040 nM. The GI50 [55] was 163 nM and the TGI [55] was 557 nM.
Compound `CCN(CC)CCNC(=O)c1cn2ncnc(Oc3ccc(NC(=O)Nc4ccc(Cl)c(C(F)(F)F)c4)cc3)c2c1C` has a GI50 [2] of 1390 nM, a TGI [2] of 2740 nM and a GI50 [4] of 1730 nM. For the same compound, the TGI [4] was 3100 nM, the GI50 [5] was 1610 nM and the TGI [5] was 3090 nM. For the same compound, the GI50 [56] was 1670 nM, the TGI [56] was 3070 nM and the GI50 [7] was 1780 nM. It also gave a TGI [7] of 3560 nM, a GI50 [8] of 1690 nM and a TGI [8] of 3100 nM. The GI50 [9] was 1690 nM, the TGI [9] was 3120 nM and the GI50 [10] was 2240 nM. For the same compound, the TGI [10] was 3920 nM, the GI50 [12] was 1620 nM and the TGI [12] was 3100 nM. For the same compound, the GI50 [14] was 1760 nM, the TGI [14] was 3560 nM and the GI50 [15] was 1190 nM. For the same compound, the TGI [15] was 2690 nM, the GI50 [16] was 1490 nM and the TGI [16] was 3920 nM. For the same compound, the GI50 [18] was 1690 nM, the TGI [18] was 3240 nM and the GI50 [19] was 383 nM. The TGI [19] was 1650 nM, the GI50 [20] was 1690 nM and the TGI [20] was 3250 nM. For the same compound, the GI50 [21] was 1360 nM, the TGI [21] was 2820 nM and the GI50 [23] was 1290 nM. The TGI [23] was 2840 nM, the GI50 [24] was 1220 nM and the TGI [24] was 2770 nM. The GI50 [25] was 1870 nM, the TGI [25] was 3520 nM and the GI50 [26] was 1630 nM. It also gave a TGI [26] of 3000 nM, a GI50 [27] of 738 nM and a TGI [27] of 2400 nM. For the same compound, the GI50 [28] was 1760 nM, the TGI [28] was 3890 nM and the GI50 [57] was 1800 nM. The TGI [57] was 3490 nM, the GI50 [29] was 1720 nM and the TGI [29] was 3320 nM. For the same compound, the GI50 [31] was 1980 nM, the TGI [31] was 3820 nM and the GI50 [32] was 1930 nM. For the same compound, the TGI [32] was 3510 nM, the GI50 [33] was 1790 nM and the TGI [33] was 3420 nM. The GI50 [34] was 1990 nM, the TGI [34] was 3480 nM and the GI50 [36] was 1310 nM. It also gave a TGI [36] of 2800 nM, a GI50 [38] of 1490 nM and a TGI [38] of 3020 nM. For the same compound, the GI50 [39] was 1590 nM, the TGI [39] was 3140 nM and the GI50 [40] was 1800 nM. For the same compound, the TGI [40] was 3330 nM, the GI50 [41] was 1100 nM and the TGI [41] was 2320 nM. It also gave a GI50 [42] of 1970 nM, a TGI [42] of 4150 nM and a GI50 [43] of 1480 nM. The TGI [43] was 2800 nM, the GI50 [44] was 1760 nM and the TGI [44] was 3220 nM. The GI50 [45] was 1850 nM, the TGI [45] was 3460 nM and the GI50 [46] was 1600 nM. The TGI [46] was 3140 nM, the GI50 [47] was 1860 nM and the TGI [47] was 3270 nM. The GI50 [48] was 64.5 nM, the TGI [48] was 1520 nM and the GI50 [49] was 2230 nM. It also gave a TGI [49] of 3960 nM, a GI50 [50] of 1800 nM and a TGI [50] of 4420 nM. For the same compound, the GI50 [51] was 2110 nM, the TGI [51] was 3920 nM and the GI50 [53] was 1630 nM. The TGI [53] was 3420 nM, the GI50 [54] was 1810 nM and the TGI [54] was 3430 nM. It also gave a GI50 [55] of 1720 nM and a TGI [55] of 3150 nM.
